Source: the supplement of paper PMC11061612

What was measured:
Assay in all cases: combination Emax (second highest fraction inhibited in the dose matrix, 72 h); higher = more inhibition; extreme values may be limits of the assay
[1] = test system: 639-V (Bladder Carcinoma)
In short: (§1)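 After 24 hours at 37°C and 5% CO2 in 1536-well plates, cells in DMEM/F12 or RPMI plus 10% FBS received two-drug dose matrices for 72 hours. Viability came from CellTiter-Glo 2.0 luminescence and was scaled as inhibition, anchored at 0 by vehicle wells and at 1 by blank wells. Combination Emax is taken as the second-highest inhibition in the matrix, and Bliss excess as the observed combination effect less EA + EB − EA·EB, with EA and EB the single-agent effects.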

[2] = test system: 8305C (Thyroid Gland Carcinoma)
In short: as §1

[3] = test system: CAL-54 (Kidney Carcinoma)
In short: as §1

[4] = test system: CTB-1 (B-Cell Non-Hodgkin's Lymphoma)
In short: as §1

[5] = test system: HARA (Squamous Cell Lung Carcinoma)
In short: as §1

[6] = test system: HO-1-u-1 (Oral Cavity Carcinoma)
In short: as §1

[7] = test system: K5 (Thyroid Gland Carcinoma)
In short: as §1

[8] = test system: KYSE-410 (Esophageal Squamous Cell Carcinoma)
In short: as §1

[9] = test system: LB771-HNC (Head and Neck Carcinoma)
In short: as §1

[10] = test system: LU-139 (Small Cell Lung Carcinoma)
In short: as §1

[11] = test system: MDA-MB-468 (Breast Carcinoma)
In short: as §1

[12] = test system: MHH-PREB-1 (B-Cell Non-Hodgkin's Lymphoma)
In short: as §1

NB14 (Neuroblastoma) = test system: NB14 (Neuroblastoma)
In short: as §1

NCI-H2795 (Mesothelioma) = test system: NCI-H2795 (Mesothelioma)
In short: as §1

NCI-H28 (Mesothelioma) = test system: NCI-H28 (Mesothelioma)
In short: as §1

[13] = test system: OVCAR-8 (Ovarian Carcinoma)
In short: as §1

[14] = test system: PCI-30 (Head and Neck Carcinoma)
In short: as §1

[15] = test system: SW1116 (Colorectal Carcinoma)
In short: as §1

[16] = test system: SW1271 (Small Cell Lung Carcinoma)
In short: as §1

[17] = test system: SW626 (Colorectal Carcinoma)
In short: as §1

SMILES	combination Emax [1]	combination Emax [2]	combination Emax [3]	combination Emax [4]	combination Emax [5]	combination Emax [6]	combination Emax [7]	combination Emax [8]	combination Emax [9]	combination Emax [10]	combination Emax [11]	combination Emax [12]	combination Emax (NB14 (Neuroblastoma))	combination Emax (NCI-H2795 (Mesothelioma))	combination Emax (NCI-H28 (Mesothelioma))	combination Emax [13]	combination Emax [14]	combination Emax [15]	combination Emax [16]	combination Emax [17]
COc1cccc(OCCCN)c1-c1cc(Nc2cnc(C#N)cn2)n[nH]1 [Prexasertib] + C[C@@H]1COCCN1C2=NC(=NC(=C2)C3(CC3)[S@](=N)(=O)C)C4=C5C=CNC5=NC=C4 [AZD6738] (first compound max 1 µM, 7x7, partner max 10 µM)	0.397	0.718	0.84	0.899	0.943	0.923	0.7	0.532	0.61	0.598	0.547	0.949	1	0.765	0.592	0.991	0.773	0.615	0.719	0.743
COc1cccc2c1C(=O)c1c(O)c3c(c(O)c1C2=O)C[C@@](O)(C(=O)CO)C[C@@H]3O[C@H]1C[C@H](N)[C@H](O)[C@H](C)O1 [Doxorubicin] + Cc1cc2ncnn2cc1Nc1ncc2c(n1)n(C1CCOCC1)c(=O)n2C [AZD7648] (first compound max 1 µM, 7x7, partner max 10 µM)	0.98	0.876	0.802	0.911	0.808	0.832	0.823	0.117	0.193	0.905	0.638	0.974	0.887	0.709	0.605	0.923	0.721	0.146	0.768	0.419
Cc1c2c(nn1C)CSCc1cc(n(C)n1)CSc1cc(c3ccccc3c1)OCCCc1c(C(=O)O)n(C)c3c-2c(Cl)ccc13 [AZD5991] + CN(C)CCCOc1ccc(-c2ccc3ncc4c(c3c2)n(C2CCOCC2)c(=O)n4C)cn1 [AZD0156] (first compound max 1 µM, 7x7, partner max 1 µM)	0.239	0.325	0.263	0.34	0.312	0.245	0.183	0.236	0.442	0.21	0.452		0.771	0.812	0.194	0.219	0.232	0.173	0.27	0.223
CCN(CCO)CCCOc1ccc2c(Nc3cc(CC(=O)Nc4cccc(F)c4)[nH]n3)ncnc2c1 [AZD2811] + C[C@@H]1COCCN1C2=NC(=NC(=C2)C3(CC3)[S@](=N)(=O)C)C4=C5C=CNC5=NC=C4 [AZD6738] (first compound max 1 µM, 7x7, partner max 10 µM)	0.339	0.567	0.666	0.751	0.816	0.852	0.635	0.355	0.46	0.299	0.563	0.797	0.998	0.674	0.533	0.797	0.581	0.295	0.595	0.581
Cc1cc2ncnn2cc1Nc1ncc2c(n1)n(C1CCOCC1)c(=O)n2C [AZD7648] + CN(C)CCCOc1ccc(-c2ccc3ncc4c(c3c2)n(C2CCOCC2)c(=O)n4C)cn1 [AZD0156] (first compound max 10 µM, 7x7, partner max 1 µM)	0.239	0.414	0.353	0.404	0.283	0.39	0.501	0.178	0.299	0.228	0.353	0.511	0.407	0.469	0.307	0.213	0.234	0.19	0.327	0.284
C[C@@H]1COCCN1c1cc(C2([S@](C)(=N)=O)CC2)nc(-c2ccnc3[nH]ccc23)n1 [AZD6738] + O=C(c1cc(Cc2n[nH]c(=O)c3ccccc23)ccc1F)N1CCN(C(=O)C2CC2)CC1 [Olaparib] (first compound max 10 µM, 7x7, partner max 10 µM)	0.787	0.99	0.658	0.777	0.778	0.793	0.627	0.239	0.483	0.418		0.679	0.94	0.745	0.408	0.935	0.538	0.262	0.666	0.455
CC1(C)CCC(CN2CCN(c3ccc(C(=O)NS(=O)(=O)c4ccc(NCC5CCOCC5)c([N+](=O)[O-])c4)c(Oc4cnc5[nH]ccc5c4)c3)CC2)=C(c2ccc(Cl)cc2)C1 [Venetoclax] + C=CCn1c(=O)c2cnc(Nc3ccc(N4CCN(C)CC4)cc3)nc2n1-c1cccc(C(C)(C)O)n1 [AZD1775] (first compound max 1 µM, partner max 1 µM)	0.428	0.639	0.795	0.897	0.899	0.949	0.523	0.422	0.518	0.831	0.521	0.846	1	0.658	0.336	0.798	0.736	0.23	0.552	0.647
CN(CCO)CC[C@H](CSc1ccccc1)Nc1ccc(S(=O)(=O)NC(=O)c2ccc(N3CCC([C@@H](O)c4ccccc4-c4ccc(Cl)cc4)CC3)cc2)cc1S(=O)(=O)C(F)(F)F [AZD4320] + C=CCn1c(=O)c2cnc(Nc3ccc(N4CCN(C)CC4)cc3)nc2n1-c1cccc(C(C)(C)O)n1 [AZD1775] (first compound max 1 µM, partner max 1 µM)	0.377	0.7	0.827	0.862	0.887	0.897	0.485	0.796	0.644	0.927	0.799		1	0.53	0.437	0.908	0.323	0.264	0.814	0.748
Cc1c2c(nn1C)CSCc1cc(n(C)n1)CSc1cc(c3ccccc3c1)OCCCc1c(C(=O)O)n(C)c3c-2c(Cl)ccc13 [AZD5991] + C1CN(CCC1(C(=O)N[C@@H](CCO)C2=CC=C(C=C2)Cl)N)C3=NC=NC4=C3C=CN4 [Capivasertib] (first compound max 1 µM, 7x7, partner max 3 µM)	0.177	0.319	0.351	0.42	0.58	0.837	0.478	0.174	0.587	0.268	0.585	0.101	0.89	0.85		0.169	0.237	0.102	0.216	0.25
CCc1c2c(nc3ccc(O)cc13)-c1cc3c(c(=O)n1C2)COC(=O)[C@]3(O)CC [SN-38] + O=C(c1cc(Cc2n[nH]c(=O)c3ccccc23)ccc1F)N1CCN(C(=O)C2CC2)CC1 [Olaparib] (first compound max 0.3 µM, 7x7, partner max 10 µM)	1	0.627	0.788	0.837	0.852	0.695	0.505	0.423	0.0947	0.767	0.773		0.967	0.771	0.429		0.727	0.214	0.758	0.559
NC1(C(=O)N[C@@H](CCO)c2ccc(Cl)cc2)CCN(c2ncnc3[nH]ccc23)CC1 [Capivasertib] + Cn1cnc2c(F)c(Nc3ccc(Br)cc3Cl)c(C(=O)NOCCO)cc21 [Selumetinib] (first compound max 10 µM, 7x7, partner max 10 µM)	0.366	0.527	0.611		0.607	0.878	0.864	0.532	0.51	0.0716	0.741	0.205	0.313	0.871	0.404	0.303	0.342	0.453	0.674	0.65
NC1(C(=O)N[C@@H](CCO)c2ccc(Cl)cc2)CCN(c2ncnc3[nH]ccc23)CC1 [Capivasertib] + COc1nnc2ccc(N3CCC(c4ccc(OCCN5CCN(C)C(=O)[C@H]5C)cc4)CC3)nn12 [AZD5153] (first compound max 10 µM, 7x7, partner max 1 µM)	0.622	0.495	0.775		0.77	0.91	0.929	0.56	0.875	0.864	0.666	0.384	0.884	0.398	0.453	0.732	0.366	0.245	0.459	0.642
CC(=O)c1c(C)c2cnc(Nc3ccc(N4CCNCC4)cn3)nc2n(C2CCCC2)c1=O [Palbociclib] + Cc1c2c(nn1C)CSCc1cc(n(C)n1)CSc1cc(c3ccccc3c1)OCCCc1c(C(=O)O)n(C)c3c-2c(Cl)ccc13 [AZD5991] (first compound max 10 µM, 7x7, partner max 1 µM)	0.269	0.666	0.583		0.559	0.367	0.541	0.407	0.448	0.25	0.463	0.511	0.822	0.823	0.413	0.129	0.276	0.164	0.301	0.336
